Results: patent publication US20080102497A1, “ENZYMATIC HYDROLYSIS OF STARCH” (priority 2006, published 2008)
Read-outs that look alike come from different tables or passages of the source.

Tests used:
[1] = biological target: T1, α-amylase from human saliva (Homo sapiens, UniProt P0DUB6); assay: hydrolysis of cooked dent corn starch; assay type: biochemical; conditions: cooked dent corn starch 0.5%, pH 5.2, 37° C., 10 min
T1 construct: the α-amylase from human saliva; from tissue; host or cells: human saliva
T1 sequence (P0DUB6 16-511): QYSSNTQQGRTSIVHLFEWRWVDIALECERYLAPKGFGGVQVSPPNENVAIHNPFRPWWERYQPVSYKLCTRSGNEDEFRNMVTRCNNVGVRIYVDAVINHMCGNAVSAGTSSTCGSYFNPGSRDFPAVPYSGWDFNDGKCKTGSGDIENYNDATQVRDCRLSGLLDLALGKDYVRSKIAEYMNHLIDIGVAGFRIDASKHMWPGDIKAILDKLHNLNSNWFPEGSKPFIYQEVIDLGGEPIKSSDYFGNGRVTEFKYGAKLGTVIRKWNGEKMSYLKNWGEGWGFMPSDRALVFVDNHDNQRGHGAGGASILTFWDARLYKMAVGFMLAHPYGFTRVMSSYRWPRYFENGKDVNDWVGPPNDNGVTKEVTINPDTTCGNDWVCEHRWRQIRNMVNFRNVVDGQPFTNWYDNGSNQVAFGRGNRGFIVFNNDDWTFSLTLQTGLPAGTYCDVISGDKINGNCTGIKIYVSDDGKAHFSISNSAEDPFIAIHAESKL
Protocol: (§1) The separate reaction mixtures were incubated at 37° C. for 10 minutes. The control reaction mixtures contained enzyme, buffer, and starch but no manganese ion. The starch hydrolysis reaction was stopped by combining the reaction mixture with a solution containing DNSA and heating for 30 min at 85° C. The absorbance of the control and test samples was measured at 562 nm to monitor the amount of reducing sugar in each sample.

[2] = system: enzyme mixture of purified glucoamylase from mushroom and purified α-amylase from barley; assay: hydrolysis of raw corn starch by enzyme mixture, reducing sugar by DNSA; assay type: biochemical; conditions: pH 5.3, 37° C., 20 min
[3] = biological target: T2, β-amylase from sweet potato (Ipomoea batatas, UniProt P10537); assay: hydrolysis of raw corn starch or soluble starch; assay type: biochemical; conditions: for % Relative Activity: pH 5.3, 37° C., 20 min
T2 construct: purchased Sigma A-7005
T2 sequence (P10537 whole entry): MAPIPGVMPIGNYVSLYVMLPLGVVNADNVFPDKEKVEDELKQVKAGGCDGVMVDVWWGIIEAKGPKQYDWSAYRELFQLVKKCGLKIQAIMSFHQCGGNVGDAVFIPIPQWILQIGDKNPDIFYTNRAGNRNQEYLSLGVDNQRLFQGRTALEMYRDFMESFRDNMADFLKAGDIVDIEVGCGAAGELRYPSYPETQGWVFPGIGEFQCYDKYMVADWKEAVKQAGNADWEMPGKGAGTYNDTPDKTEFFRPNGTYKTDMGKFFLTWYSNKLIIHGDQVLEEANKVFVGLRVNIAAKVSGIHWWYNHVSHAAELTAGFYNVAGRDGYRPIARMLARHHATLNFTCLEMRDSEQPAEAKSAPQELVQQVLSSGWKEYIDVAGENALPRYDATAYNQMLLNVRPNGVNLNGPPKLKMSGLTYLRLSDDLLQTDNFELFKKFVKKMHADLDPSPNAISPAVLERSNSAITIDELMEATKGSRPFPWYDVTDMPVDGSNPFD
Protocol: Each of the buffered enzyme solutions was separately added to 15 mg raw corn starch or 0.6 mg soluble starch, and the reaction mixtures incubated at 37° C. for 20 minutes. The control reaction mixture contained substrate, enzyme, and buffer but no manganese ion. The starch hydrolysis reaction was stopped by combining the reaction mixture with a solution containing DNSA and heating for 30 min at 85° C. The absorbance of the control and test samples was measured at 562 nm to monitor the amount of reducing sugar in each sample.

[4] = biological target: α-amylase from Aspergillus oryzae (Aspergillus oryzae, UniProt P0C1B3); assay: hydrolysis of cooked dent corn starch; assay type: biochemical; conditions: cooked dent corn starch 0.5%, pH 5.2, 37° C., 10 min
Protocol: as §1

[5] = biological target: α-amylase from Bacillus licheniformis (Bacillus licheniformis, UniProt P06278); assay: hydrolysis of raw corn starch, reducing sugar by DNSA; assay type: biochemical; conditions: for Relative Activity: raw corn starch, pH 5.3, 37° C., 20 min
α-amylase from Bacillus licheniformis, sequence (P06278 30-512): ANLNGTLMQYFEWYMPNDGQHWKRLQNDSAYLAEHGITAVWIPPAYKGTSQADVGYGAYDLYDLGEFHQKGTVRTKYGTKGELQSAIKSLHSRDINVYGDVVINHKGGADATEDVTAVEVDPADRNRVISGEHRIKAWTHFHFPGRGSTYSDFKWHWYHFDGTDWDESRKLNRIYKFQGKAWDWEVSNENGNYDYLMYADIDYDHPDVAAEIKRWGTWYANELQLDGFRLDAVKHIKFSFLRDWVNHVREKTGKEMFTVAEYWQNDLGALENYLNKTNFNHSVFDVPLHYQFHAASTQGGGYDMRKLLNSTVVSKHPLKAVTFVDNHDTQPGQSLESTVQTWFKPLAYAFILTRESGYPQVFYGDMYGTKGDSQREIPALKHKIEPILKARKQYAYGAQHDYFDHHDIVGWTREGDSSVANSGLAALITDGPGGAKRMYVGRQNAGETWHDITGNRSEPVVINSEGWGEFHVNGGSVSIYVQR
Protocol: Thereafter, 40 μl of each pre-incubation solution was added to 15 mg raw corn starch, and the reaction mixture incubated at 37° C. for 20 minutes. The control reaction mixture contained substrate, enzyme, and buffer but no manganese ion. The starch hydrolysis reaction was stopped by combining the reaction mixture with a solution containing DNSA and heating for 30 min at 85° C. The absorbance of the control and test samples was measured at 562 nm to monitor the amount of reducing sugar in each sample.

[6] = system: glucoamylase from Rhizopus sp.; assay: pH effect on hydrolysis of raw corn starch; assay type: biochemical; conditions: for Relative Activity: 37° C., 20 min, control at pH 4 = 100
Protocol: Enzyme solutions of the glucoamylase from Rhizopus sp. Were prepared in various pH buffers having a pH of 3, 4, 5, 6, 7, or 8. Thereafter, 40 μl of the buffered enzyme solution and a stock solution containing Mn^++ were added to 6 samples containing 15 mg raw corn starch to provide a reaction mixture containing 1.0 mM Mn^++. The reaction mixtures were incubated at 37° C. for 20 minutes.

[7] = biological target: glucoamylase from Aspergillus Niger (Aspergillus niger, UniProt P69328); conditions: for Relative Activity: washed 5 times before enzyme, pH 5.3, 37° C., 20 min
glucoamylase from Aspergillus Niger, sequence (P69328 25-640): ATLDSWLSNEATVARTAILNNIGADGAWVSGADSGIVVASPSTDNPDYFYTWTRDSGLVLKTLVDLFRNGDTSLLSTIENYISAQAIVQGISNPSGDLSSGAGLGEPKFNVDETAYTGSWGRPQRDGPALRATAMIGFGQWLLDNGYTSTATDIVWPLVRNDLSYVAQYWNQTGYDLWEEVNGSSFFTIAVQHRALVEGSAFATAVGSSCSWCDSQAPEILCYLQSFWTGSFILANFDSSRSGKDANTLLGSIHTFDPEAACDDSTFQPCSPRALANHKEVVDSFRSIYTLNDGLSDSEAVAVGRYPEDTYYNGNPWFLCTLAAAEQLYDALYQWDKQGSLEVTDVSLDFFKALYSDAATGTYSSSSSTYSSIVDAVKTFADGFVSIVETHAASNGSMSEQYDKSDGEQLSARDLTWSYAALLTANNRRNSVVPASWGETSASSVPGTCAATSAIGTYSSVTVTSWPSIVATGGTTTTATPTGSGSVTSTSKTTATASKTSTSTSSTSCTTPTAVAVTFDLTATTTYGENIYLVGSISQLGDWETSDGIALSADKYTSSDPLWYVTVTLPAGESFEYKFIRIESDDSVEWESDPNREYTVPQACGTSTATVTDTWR
Protocol: Thereafter 40 μl of the buffer and metal solution was added to 15 mg raw corn starch and the resulting mixture was pre-incubated at 20° C. for 20 minutes. The starch mixture was washed 5 times with excess buffer, followed by centrifugation, and removal of the supernatant. Then an enzyme solution containing buffer and the glucoamylase from Aspergillus niger was added to the washed starch and the reaction mixture incubated at 37° C. for 20 minutes. The control reaction mixture contained substrate, enzyme, and buffer but no manganese ion. The starch hydrolysis reaction was stopped by combining the reaction mixture with a solution containing DNSA and heating for 30 min at 85° C. The absorbance of the control and test samples was measured at 562 nm to monitor the amount of reducing sugar in each sample.

[8] = biological target: T3, α-amylase from porcine pancreas (Sus scrofa, UniProt P00690); assay: hydrolysis of cooked dent corn starch; assay type: biochemical; conditions: cooked dent corn starch 0.5%, pH 5.2, 37° C., 10 min
T3 construct: the α-amylase from porcine pancreas; from tissue; host or cells: porcine pancreas
T3 sequence (P00690 16-511): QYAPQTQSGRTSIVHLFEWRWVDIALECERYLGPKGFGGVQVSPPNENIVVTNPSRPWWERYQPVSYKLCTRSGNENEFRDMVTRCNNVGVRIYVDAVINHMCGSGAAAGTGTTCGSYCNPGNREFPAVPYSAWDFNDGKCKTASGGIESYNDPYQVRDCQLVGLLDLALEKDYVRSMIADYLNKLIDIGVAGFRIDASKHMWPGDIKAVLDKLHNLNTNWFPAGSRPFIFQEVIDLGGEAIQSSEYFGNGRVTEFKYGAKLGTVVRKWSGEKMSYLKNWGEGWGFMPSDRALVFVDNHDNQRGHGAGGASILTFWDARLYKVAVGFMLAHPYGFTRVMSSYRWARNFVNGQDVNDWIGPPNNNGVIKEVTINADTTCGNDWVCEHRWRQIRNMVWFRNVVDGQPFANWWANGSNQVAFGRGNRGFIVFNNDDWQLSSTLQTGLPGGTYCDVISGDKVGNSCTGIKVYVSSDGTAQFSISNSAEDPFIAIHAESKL
Protocol: as §1

[9] = biological target: T4, industrial α-amylase known as Termamyl (Bacillus licheniformis, UniProt P06278); assay: hydrolysis of cooked dent corn starch; assay type: biochemical; conditions: cooked dent corn starch 0.5%, pH 5.2, 37° C., 10 min
T4 construct: purchased Novozymes
T4 sequence (P06278 30-512): as the sequence (P06278 30-512) above
Protocol: as §1

[10] = system: glucoamylase from Rhizopus sp.; assay: hydrolysis of cooked dent corn starch; assay type: biochemical; conditions: cooked dent corn starch 0.5%, pH 5.2, 37° C., 10 min
Protocol: as §1

Compound: [Mn+2] [Mn^++, manganese ions]
- Relative Activity ([1]; 0.01 mM Mn^++): 120.2%
- Relative Activity ([1]; 0.1 mM Mn^++): 147.5%
- Relative Activity ([1]; 1 mM Mn^++): 224.4%
- Relative Activity ([1]; 10 mM Mn^++): 275.6%
- Relative Activity ([2]; 0.01 mM Mn^++): 106.7%
- Relative Activity ([2]; 0.1 mM Mn^++): 124.7%
- Relative Activity ([2]; 1 mM Mn^++): 142.6%
- Relative Activity ([2]; 10 mM Mn^++): 143.5%
- % Relative Activity ([3]; 0.01 mM Mn^++, raw corn starch): 113.9%
- % Relative Activity ([3]; 0.01 mM Mn^++, soluble starch): 108.6%
- % Relative Activity ([3]; 0.1 mM Mn^++, raw corn starch): 106.6%
- % Relative Activity ([3]; 0.1 mM Mn^++, soluble starch): 127.1%
- % Relative Activity ([3]; 1 mM Mn^++, raw corn starch): 136.5%
- % Relative Activity ([3]; 1 mM Mn^++, soluble starch): 146.6%
- % Relative Activity ([3]; 10 mM Mn^++, raw corn starch): 160.6%
- % Relative Activity ([3]; 10 mM Mn^++, soluble starch): 176.3%
- effect on hydrolysis of starch (in words) ([3]; raw corn starch and soluble starch): enhances the hydrolysis of both raw corn starch and soluble starch
- Relative Activity ([4]; 0.01 mM Mn^++): 126.9%
- Relative Activity ([4]; 0.1 mM Mn^++): 131.2%
- Relative Activity ([4]; 1 mM Mn^++): 135.2%
- Relative Activity ([5]; 0.01 mM Mn^++): 93.4%
- Relative Activity ([5]; 0.1 mM Mn^++): 104.6%
- Relative Activity ([5]; 1 mM Mn^++): 113.8%
- effect on hydrolysis of raw corn starch (in words) ([5]; summary of Table 4): enhances the hydrolysis of raw corn starch
- pH of greatest Mn^++-induced activation ([6]; 1.0 mM Mn^++, pH 3-8 tested): 5.0
- Relative Activity ([6]; pH 3, 1.0 mM Mn^++): 98%
- Relative Activity ([6]; pH 4, 1.0 mM Mn^++): 146.7%
- Relative Activity ([6]; pH 5, 1.0 mM Mn^++): 148.6%
- Relative Activity ([6]; pH 6, 1.0 mM Mn^++): 127.8%
- Relative Activity ([6]; pH 7, 1.0 mM Mn^++): 103.1%
- Relative Activity ([6]; pH 8, 1.0 mM Mn^++): 44.3%
- Relative Activity ([7]; raw corn starch pre-incubated with 0.01 mM Mn^++): 89.1%
- Relative Activity ([7]; raw corn starch pre-incubated with 0.1 mM Mn^++): 84.2%
- Relative Activity ([7]; raw corn starch pre-incubated with 1 mM Mn^++): 95.0%
- Relative Activity ([7]; raw corn starch pre-incubated with 10 mM Mn^++): 89.1%
- cause of Mn^++-induced enhancement (in words) ([7]; starch pre-incubated with Mn^++ and washed): not caused by the action of Mn^++ on the starch
- Relative Activity ([8]; 0.01 mM Mn^++): 114.5%
- Relative Activity ([8]; 0.1 mM Mn^++): 132.4%
- Relative Activity ([8]; 1 mM Mn^++): 144.2%
- Relative Activity ([8]; 10 mM Mn^++): 177.7%
- Relative Activity ([9]; 0.01 mM Mn^++): 114.7%
- Relative Activity ([9]; 10 mM Mn^++): 156.3%
- Relative Activity ([10]; 0.01 mM Mn^++): 112.0%
- Relative Activity ([10]; 0.1 mM Mn^++): 123.8%
- Relative Activity ([10]; 1 mM Mn^++): 145.1%
- Relative Activity ([10]; 10 mM Mn^++): 223.5%
